From patent US8354430B2, “Monohydrochloride salt of 1-[3-[3-(4-chlorophenyl) propoxy]propyl]-piperidine” (priority 2005, dated 2013)

How the values were obtained:
mice [1] = test: Kainate-induced temporal lobe seizures in mice; assay type: in vivo, mouse
Protocol: Unilateral injection of kainic acid (1 nmol in […]) into the dorsal hippocampus in mice induces a non-convulsive status that results in spontaneous recurrent focal seizures after 2-3 weeks. Seizures (5 to 20 times per hour in quiet mice) are characterized by a behavioral arrest and/or stereotypies, concomitant with spike and poly-spike discharges recorded in the injected hippocampus. All AEDs tested in this model (valproate, carbamazepine, phenytoin, levetiracetam) are without significant effects, except benzodiazepines which transiently suppress seizures. This model reproduces the behavioral, EEG, pharmacological and histological characteristics of mesial temporal lobe epilepsy, a form of epilepsy which is often drug-resistant in humans. After a recovery period, implanted mice (for EEG recording) were injected with kainic acid. They were EEG recorded at least 3 weeks after injection for selection of animals with consistent hippocampal seizure. Then, after a 20 min reference recording period, selected mice received either 1-[3-[3-(4-chlorophenyl)propoxy]propyl]piperidine monohydrochloride (10 or 20 mg/kg, i.p.) or saline and the recording was continued for 60 min. Treatments were given in a counter balanced order (after a one week washout period between two sessions).

mice [2] = test: Electroshock in mice (maximal electroshock seizure model); assay type: in vivo, mouse; details: 100 mg/kg, p.o.; test 60 min after dosing
[3] = Stability to oxidation conditions (melting points under nitrogen and oxygen atmosphere); assay type: physicochemical
Protocol: Melting points of the above salts were also determined under nitrogen and oxygen atmosphere, in order to verify their stability to oxidation conditions.

[4] = 13-week repeat oral dose study in rats; details: rat, in vivo, read-out: NOAEL (no observed adverse effect level)
[5] = Genotoxicity in vitro or in vivo
mice [6] = test: Natural forgetting, two-trial object recognition; assay type: in vivo, mouse
Protocol: Methods: Mice were submitted to the first trial (T1), placed in the box containing two identical objects and the time required by each animal to complete 8 sec of object exploration was determined. Exploration was considered to be directing the nose at a distance closer than 2 cm to the object and/or touching the object. Immediately after the first trial mice were treated with the vehicle or tacrine (0.25 mg/kg, i.p.). […] Mice were placed in the box for 5 min and exploration of each object together with motor activity was determined. The following parameters were measured: […]

mice [7] = test: Acute toxicity in mouse; assay type: in vivo; details: for no-effect dose: mouse, in vivo
rat H3R = molecular target: T1, rat H3R (Rattus norvegicus, UniProt Q9QYN8); test: A23187-evoked [3H]arachidonic acid release from CHO cells expressing rat H3R; assay type: cell-based; details: 1 μM, rat H3R 300-400 fmol/mg protein
T1 construct: expressed in transfected cells; host or cells: CHO cells

human H3R [8] = molecular target: T2, human H3R (Homo sapiens, UniProt Q9Y5N1); test: Histamine H3 receptor binding, recombinant human H3R expressed in rat glioma C6 cells; set-up: expressed in transfected cells; host or cells: various mammalian cells (the earlier reading names rat glioma C6)
mice [9] = test: Scopolamine-induced learning deficit, two-trial object recognition; assay type: in vivo, mouse; details: i.p., scopolamine 0.3 mg/kg i.p.
Protocol: Lett., 1994, 170, 117-120; Bartolini et al., Biochem. Nehav., 1996, 53, 277-283]. Methods: Mice were allowed to explore a box for 30 min in the presence of two objects. The day after, mice were submitted to two trials spaced by an interval of 60 min. During the first trial (T1), mice were placed in the box containing the two identical objects and the time required by each animal to complete 20 sec of object exploration was determined. Exploration was considered to be directing the nose at a distance closer than 2 cm to the object and/or touching the object. For the second trial (T2), one of the objects presented in the first trial was replaced by and unknown novel object. Mice were placed in the box for 5 min and exploration of each object together with motor activity was determined. The following parameters were measured.

volunteers = test: Single ascending dose EEG, psychometric and vigilance study in volunteers; assay type: in vivo, human
Protocol: A single-center, double-blind, randomized, placebo-controlled, single ascending doses, electroencephalographic study was performed in 36 volunteers. Subjects were consecutively enrolled in groups 1 to 6 (1, 5, 10, 20, 40 or 60 mg). All subjects of each dose group were randomly assigned to receive either 1-[3-[3-(4-chlorophenyl) propoxy]propyl]-piperidine monohydrochloride or placebo, in such a way that 5 subjects received the product and one subject received placebo.
From the EEG spectral analysis performed before treatment, the study subjects could be stratified as microvolted (66%) and normo or grandvolted (33%). The distribution between those subjects with 30-40% slow activity and 20-25% rapid activity (microvolted), and those with 10% slow activity (normovolted) or 60-80% of [alpha]-activity (grandvolted), explains that before drug administration significant differences were elicited for 20-30 Hz and 30-40 Hz activities.

Human H1R = Human H1R (Homo sapiens, UniProt P35367); test: Specific [3H]mepyramine binding at recombinant human H1 receptors expressed in HEK293 cells; details: read-out: Ki or IC50, Human H1R
human H3R [10] = molecular target: T2, human H3R; test: [35S]GTPγS specific binding to membranes of CHO cells expressing the human H3R; assay type: biochemical; set-up: expressed in transfected cells; host or cells: CHO cells
H2R = H2R (Cavia porcellus, UniProt P47747); test: [125I]iodoaminopotentidine binding assay to the guinea pig H2 receptor; details: read-out: Ki or IC50, H2R
Human H4R = Human H4R (Homo sapiens, UniProt Q9H3N8); test: [3H]histamine binding assay; details: read-out: Ki or IC50, Human H4R
rats = test: Acute toxicity in rat; assay type: in vivo; details: for no-effect dose: in vivo
[11] = two hours after single oral 40 mg and 60 mg

T2 sequence (Q9Y5N1 whole entry): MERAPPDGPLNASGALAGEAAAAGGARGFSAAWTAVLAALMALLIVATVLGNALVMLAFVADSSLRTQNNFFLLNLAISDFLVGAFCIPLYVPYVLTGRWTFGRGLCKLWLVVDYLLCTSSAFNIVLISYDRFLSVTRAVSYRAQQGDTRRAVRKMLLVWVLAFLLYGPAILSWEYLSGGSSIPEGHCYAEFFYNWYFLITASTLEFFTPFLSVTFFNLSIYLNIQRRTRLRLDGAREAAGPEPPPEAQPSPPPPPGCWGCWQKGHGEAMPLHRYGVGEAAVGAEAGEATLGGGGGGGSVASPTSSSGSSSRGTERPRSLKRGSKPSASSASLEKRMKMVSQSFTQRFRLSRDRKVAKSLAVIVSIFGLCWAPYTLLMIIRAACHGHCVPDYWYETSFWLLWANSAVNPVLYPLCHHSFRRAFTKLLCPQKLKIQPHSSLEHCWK
Chain of Human H1R (P35367 whole entry): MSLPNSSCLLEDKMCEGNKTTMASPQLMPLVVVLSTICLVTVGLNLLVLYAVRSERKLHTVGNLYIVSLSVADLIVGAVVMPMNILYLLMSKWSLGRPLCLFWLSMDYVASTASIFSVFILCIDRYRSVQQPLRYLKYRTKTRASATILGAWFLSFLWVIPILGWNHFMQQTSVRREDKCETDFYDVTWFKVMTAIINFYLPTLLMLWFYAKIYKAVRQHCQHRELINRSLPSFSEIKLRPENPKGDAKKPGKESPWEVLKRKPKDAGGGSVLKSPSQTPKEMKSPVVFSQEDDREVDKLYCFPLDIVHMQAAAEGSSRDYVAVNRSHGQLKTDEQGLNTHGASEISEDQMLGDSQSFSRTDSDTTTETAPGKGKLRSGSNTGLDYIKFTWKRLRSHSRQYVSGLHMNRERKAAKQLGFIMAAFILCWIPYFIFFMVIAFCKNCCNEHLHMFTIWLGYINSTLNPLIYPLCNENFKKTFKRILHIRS
T1 sequence (Q9QYN8 whole entry): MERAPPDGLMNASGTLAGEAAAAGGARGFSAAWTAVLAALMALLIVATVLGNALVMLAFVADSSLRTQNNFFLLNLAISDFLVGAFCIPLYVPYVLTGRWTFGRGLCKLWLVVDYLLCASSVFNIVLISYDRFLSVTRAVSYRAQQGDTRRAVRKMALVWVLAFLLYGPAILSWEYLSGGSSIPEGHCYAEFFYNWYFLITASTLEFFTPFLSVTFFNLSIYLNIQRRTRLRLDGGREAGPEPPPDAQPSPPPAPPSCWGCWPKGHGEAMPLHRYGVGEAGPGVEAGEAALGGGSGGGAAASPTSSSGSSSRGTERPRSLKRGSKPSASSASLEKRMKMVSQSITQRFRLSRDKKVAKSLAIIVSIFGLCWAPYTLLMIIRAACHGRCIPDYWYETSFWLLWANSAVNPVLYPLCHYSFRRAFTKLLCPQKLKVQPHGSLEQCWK
Chain of H2R (P47747 whole entry): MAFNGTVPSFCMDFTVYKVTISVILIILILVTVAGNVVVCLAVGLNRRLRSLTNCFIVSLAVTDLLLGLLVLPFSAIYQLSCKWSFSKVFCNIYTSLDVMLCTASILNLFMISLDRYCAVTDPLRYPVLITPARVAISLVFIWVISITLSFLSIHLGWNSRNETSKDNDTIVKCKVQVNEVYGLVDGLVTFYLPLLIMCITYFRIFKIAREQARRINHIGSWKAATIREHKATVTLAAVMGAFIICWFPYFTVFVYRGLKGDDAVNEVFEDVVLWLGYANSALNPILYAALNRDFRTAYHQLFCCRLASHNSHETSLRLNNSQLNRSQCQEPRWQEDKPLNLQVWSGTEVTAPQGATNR
Chain of Human H4R (Q9H3N8 whole entry): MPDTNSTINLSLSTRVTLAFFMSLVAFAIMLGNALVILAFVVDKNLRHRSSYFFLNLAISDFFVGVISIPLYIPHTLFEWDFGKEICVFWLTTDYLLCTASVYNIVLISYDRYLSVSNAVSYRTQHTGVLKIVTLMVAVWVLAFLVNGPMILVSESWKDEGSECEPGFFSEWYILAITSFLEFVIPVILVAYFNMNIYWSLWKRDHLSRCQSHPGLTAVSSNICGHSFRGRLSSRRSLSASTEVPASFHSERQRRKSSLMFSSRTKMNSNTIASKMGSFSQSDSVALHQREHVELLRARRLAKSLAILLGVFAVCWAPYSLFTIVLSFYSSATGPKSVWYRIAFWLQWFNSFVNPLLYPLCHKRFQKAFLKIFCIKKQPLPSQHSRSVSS

In the case of `Cl.Clc1ccc(CCCOCCCN2CCCCC2)cc1` [1-[3-[3-(4-chlorophenyl)propoxy]propyl]-piperidine monohydrochloride], the “cumulated duration and number of hippocampal discharges” value (mice [1]; 10 mg/kg, i.p., first 40 min after administration) is reported as “reduced”, the “cumulated duration of hippocampal discharges” value (mice [1]; 20 mg/kg i.p., at 60 min) is reported as “also reduced” and the “protection in the maximal electroshock seizure model” value (mice [2]) is reported as “complete protection”. The “Melting point, N2 atmosphere (stability to oxidation conditions)” value ([3]; N2 atmosphere) was 117.68 °C, the “Melting point, O2 atmosphere (stability to oxidation conditions)” value ([3]; O2 atmosphere) was 117.54 °C and the “stability to oxidation conditions” value ([3]; melting points under nitrogen vs oxygen atmosphere) was “better profile of stability to oxidation conditions than other salts”. The NOAEL at 13 weeks [4] was 30 mg/kg/day, the genotoxicity [5] was “not to be genotoxic in vitro or in vivo” and the “natural forgetting, association with tacrine” value (mice [6]; 15 mg/kg i.p. together with tacrine 0.25 mg/kg i.p.) was “without change in the tacrine effect”. The natural forgetting (mice [6]; 15 mg/kg, i.p., 30 min before T1) was “significantly reduced”, the “maximum non lethal dose” value (mice [7]; mice) was 100 mg/kg and the minimum lethal dose (mice [7]; mice, i.v.) was 10 mg/kg. The minimum lethal dose (mice [7]; mice, p.o.) was 150 mg/kg, the no-effect dose (mice [7]; iv) was > 5 mg/kg and the no-effect dose (mice [7]; po) was > 30 mg/kg. For the same molecule, the “decrease of the A23187-evoked [3H]AA release” value (rat H3R) was 40%, the “difference between the affinity at H3R and at other histamine receptors” value (human H3R [8]) was “three orders of magnitude” and the “potency at the human H3R as compared to the mouse H3R” value (human H3R [8]; same test system) was “about 6 times”. The solubility (physchem; pH 4.5, aqueous buffer) was > 1000 mg/mL, the solubility (physchem; pH 7.4, aqueous buffer) was > 1000 mg/mL and the solubility (physchem; water) was > 1000 mg/mL. The “reversal of scopolamine-induced amnesia” value (mice [9]; 5 mg/kg) was “a reversal trend appeared without being significant”, the “reversal of scopolamine-induced amnesia” value (mice [9]; 15 mg/kg) was “significantly (p=0.0056) reversed” and the “flicker, fusion and flicker-fusion thresholds (CFF) vs placebo” value (volunteers; single 60 mg) was “higher”. The “ARCI 49” value (volunteers; single doses 1-60 mg) was “no trend or statistically significant drug effect”, the “self-perception of sleep (LEEDS), alertness, contentedness and calmness (Bond-Lader VAS), choice reaction time (CRT)” value (volunteers; single doses 1-60 mg) was “no statistically significant drug effect” and the “EEG rapid activity (20-30 Hz anterior leads, 16 to 40 Hz posterior leads)” value (volunteers; [11]) was “statistically significant increase of rapid activity”. For the same molecule, the “median peak position (MPP) on the frequency axis” value (volunteers; [11]) was “from 10 to 15-17 Hz and from 11 to 13-15 Hz”, the Ki (Human H1R) was 1.14 µM and the “decrease in [35S]GTPγS specific binding” value (human H3R [10]; 10 nM, receptor level 1000-1100 fmol/mg protein) was 22%. For the same molecule, the “maximal decrease of specific binding of [35S]GTPγS” value (human H3R [10]; receptor level 410 fmol/mg protein) was 25%, the Ki (H2R) was ~5 µM and the Ki (Human H4R) was > 100 µM. For the same molecule, the no-effect dose (rats; iv) was 12 mg/kg, the no-effect dose (rats; po) was > 50 mg/kg and the “maximum non lethal oral dose” value (rats; oral) was 100 mg/kg.
